Data published in patent publication US8008021B2, “N-terminal truncation of cardiac troponin subunits and their roles in cardiovascular disease” (Evanston Northwestern Healthcare, priority 2006, dated 2011).

Biological target: T1, myofibril associated μ-calpain (Mus musculus, UniProt O35350)
T1 construct: To test whether endogenous calpain in the cardiac muscle contributes to TnT NH2-terminal modification; from tissue
T1 sequence (O35350 1-713): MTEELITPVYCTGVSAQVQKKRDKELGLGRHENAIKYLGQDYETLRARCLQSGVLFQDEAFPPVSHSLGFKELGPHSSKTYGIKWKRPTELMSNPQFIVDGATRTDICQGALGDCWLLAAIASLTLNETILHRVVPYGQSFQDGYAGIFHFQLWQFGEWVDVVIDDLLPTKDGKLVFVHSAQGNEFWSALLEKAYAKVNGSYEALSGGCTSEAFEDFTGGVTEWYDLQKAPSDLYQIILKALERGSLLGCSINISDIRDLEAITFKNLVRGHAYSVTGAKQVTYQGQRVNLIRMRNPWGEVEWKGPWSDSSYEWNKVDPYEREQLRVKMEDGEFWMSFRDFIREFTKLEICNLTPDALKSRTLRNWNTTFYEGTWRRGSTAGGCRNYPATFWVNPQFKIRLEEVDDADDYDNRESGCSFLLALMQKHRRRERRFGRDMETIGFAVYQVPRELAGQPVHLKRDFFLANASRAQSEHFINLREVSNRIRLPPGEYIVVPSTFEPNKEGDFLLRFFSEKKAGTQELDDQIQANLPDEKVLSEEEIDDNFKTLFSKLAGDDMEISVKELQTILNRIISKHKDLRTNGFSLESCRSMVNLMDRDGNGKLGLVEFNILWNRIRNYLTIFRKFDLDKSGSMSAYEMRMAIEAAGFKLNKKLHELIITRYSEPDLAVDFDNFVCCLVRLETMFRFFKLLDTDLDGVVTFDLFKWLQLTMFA
T1 sequence (O88456 1-268 partner): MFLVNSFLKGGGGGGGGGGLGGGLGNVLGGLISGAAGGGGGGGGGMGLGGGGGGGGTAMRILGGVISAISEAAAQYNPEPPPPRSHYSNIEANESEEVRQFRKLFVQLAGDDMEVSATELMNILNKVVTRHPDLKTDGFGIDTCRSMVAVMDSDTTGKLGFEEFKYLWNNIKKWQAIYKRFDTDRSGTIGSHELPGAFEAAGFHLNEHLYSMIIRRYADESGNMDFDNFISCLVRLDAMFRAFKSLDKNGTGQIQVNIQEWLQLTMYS
Experiment: Calpain inhibition of cTnT-ND production in TRITON X-100 extracted ventricular muscle strips (Western blot densitometry)
Assay type: biochemical
Conditions: calpain specific inhibitor; TRITON X-100 extracted mouse cardiac muscle strips
Description: SDS-PAGE and Western blotting. Ventricular muscle tissues or myocytes were homogenized in Laemmli SDS-PAGE sample buffer containing 2% SDS, heated at 80° C. for 5 min, and clarified by centrifugation. Total protein extracts were resolved by 14% Laemmli gel with an acrylamide:bisacrylamide ratio of 180:1 (low cross linker) or by 15% Laemmli gel with an acrylamide:bisacrylamide ratio of 29:1 (high cross linker). The gels were stained with Coomassie Brilliant Blue R250 to reveal the resolved protein bands. Duplicate gels were electrically blotted to nitrocellulose membranes, as described previously (21). After blocking in Tris-buffered saline (TBS) containing 1% bovine serum albumin (BSA), the membrane was incubated with anti-TnT mAbs CT3, 2C8, or polyclonal antibody RATnT. The membranes were then washed with high stringency using TBS containing 0.5% TRITON® X-100 and 0.05% SDS, incubated with alkaline phosphatase-conjugated anti-mouse IgG or anti-rabbit IgG second antibodies (Sigma), washed again, and developed in 5-bromo-4-chloro-3-indolylphosphate/nitro blue tetrazolium substrate solution, as described previously (21).
TRITON® X-100 extraction of ventricular muscle strips. In an ice container, ventricular muscle was cut with a sharp razor blade into fine pieces approximately the size of isolated trabeculae. The muscle strips were washed in relaxing solution containing […], 2 mM MgCl2, 2 mM EGTA, 10 mM Tris, 0.5 mM DTT, 0.1 mM PMSF and 2 mM Na4P2O7. After centrifugation at 2,800×g at 4° C. for 15 min, the pellet was skinned in relaxing solution plus 0.5% (w/w) TRITON® X-100 at 4° C. with rotation for 10 min. After centrifugation at 14,000×g at 4° C. for 20 min, the pellet was suspended in relaxing solution without TRITON® X-100 and incubated at 37° C. with rotation. Samples were collected at a series of time points for SDS-PAGE and Western blotting to examine the modifications of cTnT and other myofibrillar proteins.
Calpain inhibition. To test whether endogenous calpain in the cardiac muscle contributes to TnT NH2-terminal modification, several different calpain inhibitors were applied to the TRITON® X-100 extraction procedure. […] TRITON® X-100 treatment of mouse ventricular muscle strips was carried out as above in the presence or absence of 100 μM hydrogen peroxide and the effect on cTnT modification was examined by Western blotting.
The effects of two cell membrane-permissible nonpeptide calpain inhibitors, PD 150606 and PD 151746 (Calbiochem), were also tested. […] PD 150606 and […] were separately added to the relaxing solution before TRITON® X-100 treatment and incubated with the minced ventricular muscle at 4° C. for 10 minutes to allow the inhibitor to penetrate cell membrane and bind to calpain. After TRITON® X-100 extraction, samples were collected for SDS-PAGE and Western blotting to examine the effect on cTnT modification.

cTnT-ND production decreased to [%] | decrease in cTnT-ND72-291 production | Structure (SMILES)
50 | approximately 50% | O=C(O)/C(S)=C/c1c[nH]c2ccc(F)cc12 [PD151746]
63 | approximately 37% | O=C(O)/C(S)=C/c1ccc(I)cc1 [PD150606]
